The results in this text go back to patent US12202832B2, “Heterocyclic compounds having a calcium-sensing receptor antagonistic activity” (TAKEDA PHARMACEUTICAL COMPANY LIMITED, priority 2017, dated 2025).

One data set addresses T1, CYP3A4 (Homo sapiens, UniProt P08684).
T1 construct: Human liver microsomes purchased from XenoTech, LLC (Lenexa, KS) was used; tissue XenoTech, LLC (Lenexa, KS); host or cells: human liver microsomes
Briefly: CYP3A4 TDI in human liver microsomes (testosterone 6β-hydroxylation). In kind it is in vitro ADME. Particulars: 30 μM test compound, 60 min vs 0 min preincubation, solvent DMSO/acetonitrile (1:4, v/v). The method, then: Human liver microsomes purchased from XenoTech, LLC (Lenexa, KS) was used. Test compounds were dissolved in acetonitrile or DMSO/acetonitrile (1:4, v/v). To a human liver microsomes solution adjusted with phosphate buffer (pH 7.4), the test compound solution was added to obtain a human liver microsomes reaction solution having the test compound concentration of 30 μM. To the human liver microsome reaction solution, NADPH production system was added, and the mixture was preincubated at 37° C. for 0 minutes or 60 minutes. After the preincubation, probe substrate testosterone was added, and testosterone metabolite 6β-hydroxytestosterone was analyzed by LC/MS/MS to evaluate CYP3A4 enzymatic activity.
The enzyme activity (% of control) at each preincubation point was calculated from the following equation: % of control={(activity of test compound addition group)/(activity of test compound non-addition group)}×100.
The remaining activity (% remaining) after 60 minutes of preincubation was calculated from the following equation: Remaining activity (%)={activity after 60 minutes (% of control60 min)}/{activity after 0 minutes (% of control0 min)}×100.

The subject of data set [1] is CSQ-Tg mice. The experiment in a line: Effect on survival rate of heart failure animal model. In kind it is in vivo. Particulars: oral QD 68 days, control: candesartan cilexetil mono-administration. The method, then:
FIG. 1 is a graph showing a result of Test Example 5 “Effect of Compound of Example 1 on Survival Rate of Heart Failure Animal Model”, that is, survival rates of each of the mono-administration group of candesartan cilexetil, the co-administration group of candesartan cilexetil and the compound of Example 1 at 10 mg/kg bodyweight/day, and the co-administration group of candesartan cilexetil and the compound of Example 1 at 30 mg/kg bodyweight/day (log-rank test, the co-administration group of candesartan cilexetil and the compound of Example 1 at 10 mg/kg bodyweight/day (p<0.05), the co-administration group of candesartan cilexetil and the compound of Example 1 at 30 mg/kg bodyweight/day (p<0.01)).
In this Test Example, effect of Example 1 on survival rate was examined using heart failure animal models. The mice reported in Larry R. Jones et al., J. Clin. Invest. 101: 1385-1393, 1998 were obtained from the University of Pennsylvania and bred in-house, which were cardiac-specific transgenic mice of Calsequestrin (CSQ) (CSQ-Tg mice) as the heart failure animal models. In the study, female mice were used, and dosing was started from the age of 5 weeks. The animals were fed with chow (CE-2, CLEA Japan, Inc.) and tap water under the condition of room temperature of 20 to 26° C., humidity of 40 to 70%, and lighting time of 12 hours/day (7:00 to 19:00). […]

Data set [2] has as its system CSQ-Tg mice. The experiment in a line: Heart weight lowering effect in heart failure animal model. Format: in vivo. Particulars: mean ± standard deviation; for Heart weight / Right ventricle weight: ** p < 0.025 Williams' test. The method, then:
In this Test Example, the heart weight lowering effect of the compound of Example 1 (referred to herein as “Example 1”) was evaluated using CSQ-Tg mice as animal model for heart failure.
The Example 1 was suspended in 0.5% methylcellulose aqueous solution (hereinafter, in Test Examples, sometimes referred to as “vehicle”) (10 mL/kg). The obtained suspension was orally administered to 5-week old female CSQ-Tg mice developing heart failure at a dose of 30 mg/kg bodyweight/day (n=7) or 90 mg/kg bodyweight/day (n=9) once daily (QD) for 21 days. For a negative control (vehicle administration group), 0.5% methylcellulose aqueous solution (n=7) was administered. Then, weights of the hearts were measured. The measurement of the weights was carried out by fractionating each of the hearts into four: left ventricle, right ventricle, left atrium, and right atrium. The sum of the weights of the four fractions was defined as the heart weight.

Setting [3] is: 30 mg/kg bodyweight/day oral QD 21 days.
Setting [4] is: 90 mg/kg bodyweight/day oral QD 21 days.

T1 sequence (P08684 whole entry): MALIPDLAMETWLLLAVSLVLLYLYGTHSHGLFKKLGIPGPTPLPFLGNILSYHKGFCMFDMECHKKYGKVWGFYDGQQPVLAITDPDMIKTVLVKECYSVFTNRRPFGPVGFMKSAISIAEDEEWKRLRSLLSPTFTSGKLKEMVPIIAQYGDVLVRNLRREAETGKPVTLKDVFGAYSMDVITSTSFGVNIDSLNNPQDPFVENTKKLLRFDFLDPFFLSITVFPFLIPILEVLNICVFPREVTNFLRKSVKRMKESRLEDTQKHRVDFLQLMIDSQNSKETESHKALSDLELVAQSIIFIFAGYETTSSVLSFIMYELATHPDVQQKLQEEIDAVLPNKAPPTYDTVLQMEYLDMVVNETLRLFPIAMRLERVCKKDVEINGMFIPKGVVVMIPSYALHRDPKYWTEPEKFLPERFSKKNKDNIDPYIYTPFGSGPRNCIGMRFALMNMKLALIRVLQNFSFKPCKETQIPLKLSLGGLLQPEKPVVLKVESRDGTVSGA

Take `CCc1ccc([C@@](CC)(NC(=O)c2c(C)nn3c2N[C@@H](c2ccccc2)CC3(C)C)C(=O)N[C@@H](C)C(N)=O)cc1` [Example 1, (5R)-N-((2R)-1-(((2S)-1-Amino-1-oxopropan-2-yl)amino)-2-(4-ethylphenyl)-1-oxobutan-2-yl)-2,7,7-trimethyl-5-phenyl-4,5,6,7-tetrahydropyrazolo[1,5-a]pyrimidine-3-carboxamide]: the “Remaining Activity” value at CYP3A4 came out at 96.2%. Also, in the data set on CSQ-Tg mice [1] (10 mg/kg bodyweight/day co-administered with candesartan cilexetil (1 mg/kg bodyweight/day)), the “Survival rate, log-rank test p” value is given as below 0.05. In addition, the “Survival rate, log-rank test p” value with CSQ-Tg mice [1] (30 mg/kg bodyweight/day co-administered with candesartan cilexetil (1 mg/kg bodyweight/day)) is listed as below 0.01. In the data set on CSQ-Tg mice [2] (setting [3]), the Left atrium weight is reported as 8.1 ± 3.8 mg, the Left ventricle weight is 147.4 ± 12.0 mg, the Right atrium weight was determined as 5.5 ± 2.6 mg and the Heart weight was 202.8 ± 14.1** mg. Further, in the data set with CSQ-Tg mice [2] (setting [3]), the Right ventricle weight is 41.8 ± 6.0** mg. In the data set on CSQ-Tg mice [2] (setting [4]), the Left atrium weight worked out at 9.1 ± 5.1 mg, the Left ventricle weight came to 147.0 ± 8.6 mg, the Right atrium weight is 5.1 ± 2.2 mg and the Heart weight is 202.5 ± 19.1** mg. The Right ventricle weight in the data set on CSQ-Tg mice [2] (setting [4]) is listed as 41.3 ± 7.6** mg.
